Where two headings read alike, the source gives them in different places.
Biological target: T1, Human BCL-XL protein (N-terminal HiBiT tagged BCL-XL in HT1080 cells) (Homo sapiens, UniProt Q07817)
T1 construct: expressed in transfected cells; host or cells: HT-1080 (ATCC CCL-121), stably transduced with lentivirus pLV-UBC-N-HiBiT-BCL-XL-PGK-puro and selected with puromycin
Assay: HiBiT based degradation assay
Assay type: cell-based
Conditions: HT1080 cells expressing HiBiT-BCL-XL; for Ymin (24 h) / Ymin (6 h): BCL-XL degradation normalized with DMSO control; for DC50: BCL-XL degradation
From the text: Human BCL-XL protein coding open reading frame fused with N-terminal HiBiT coding sequence was synthesized from Integrated DNA Technologies (IDT). Next, N-HiBiT-BCL-XL sequence was cloned into pLV-UBC-PGK-Puro, a lentivirus plasmid purchased from Vectorbuilder, to generate pLV-UBC-N-HiBiT-BCL-XL-PGK-puro. Lentiviral particles were generated from Lenti-X™ 293T cells (Clontech) by co-transfection of pLV-UBC-N-HiBiT-BCL-XL-PGK-puro plasmids and lentiviral packaging plasmid mix (Cellecta). HT-1080 [HT1080](ATCC CCL-121) cells were infected with the lentivirus, and HT1080 cells stably integrated with the lentiviral vectors were established by incubation with 1 μg/mL puromycin (Thermofisher).
HT1080 cells expressing N-terminal HiBiT tagged BCL-XL were dispensed into a 384-well plate pre-spotted with compounds at varying concentrations. Three thousand cells were seeded into each well in 40 μL of RPMI 1640 media. […] After incubation, luminescence was read on a PHERAstar FSX Plate Reader (BMG). BCL-XL degradation at each indicated concentration was normalized with the DMSO control. The BCL-XL degradation curves were plotted using a four-parameter logistic model. For compounds displaying hook effects, the curve fitting was performed using the bottom point of the hook curves (i.e., the point of Ymin) as the bottom plateau to calculate EC50.

T1 sequence (Q07817 whole entry): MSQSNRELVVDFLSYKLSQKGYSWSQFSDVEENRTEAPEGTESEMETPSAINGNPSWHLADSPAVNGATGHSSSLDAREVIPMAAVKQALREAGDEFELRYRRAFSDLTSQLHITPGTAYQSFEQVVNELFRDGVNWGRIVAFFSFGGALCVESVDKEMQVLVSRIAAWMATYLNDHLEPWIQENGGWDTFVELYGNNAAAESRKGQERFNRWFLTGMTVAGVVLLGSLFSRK

SMILES	Ymin (24 h)	DC50 (24 h, read-out: EC50 (24 h)) [nM]	Ymin (6 h)	DC50 (6 h, read-out: EC50 (6 h)) [nM]
Cc1c(OCC[C@@H](C)C2CCN(CC(=O)Nc3cccc4c(C5CCC(=O)NC5=O)nn(C)c34)CC2)cccc1-c1ccc(N2CCc3cccc(C(=O)Nc4nc5ccccc5s4)c3C2)nc1C(=O)O (stereo partly drawn) [Compound 173b, 6-[8-(1,3-benzothiazol-2-ylcarbamoyl)-3,4-dihydro-1H-isoquinolin-2-yl]-3-[3-[(3R)-3-[1-[2-[[3-(2,6-dioxo-3-piperidyl)-1-methyl-indazol-7-yl]amino]-2-oxo-ethyl]-4-piperidyl]butoxy]-2-methyl-phenyl]pyridine-2-carboxylic acid]	B (50% ≤ Ymin < 70%)	100 to 1000		
Cc1c(O[C@H]2CC[C@H](CCC[C@H](C)N3CCN(c4ccc5c(C6CCC(=O)NC6=O)nn(C)c5c4)CC3)CC2)cccc1-c1ccc(N2CCc3cccc(C(=O)Nc4nc5ccccc5s4)c3C2)nc1C(=O)O (single isomer, unassigned) [Compound 333a]	A (Ymin < 50%)	< 100		
Cc1c(O[C@H]2CC[C@H](C[C@H](C)CCN3CCN(c4ccc5c(C6CCC(=O)NC6=O)nn(C)c5c4)CC3)CC2)cccc1-c1ccc(N2CCc3cccc(C(=O)Nc4nc5ccccc5s4)c3C2)nc1C(=O)O (single isomer, unassigned) [Compound 307a]	A (Ymin < 50%)	< 100		
Cc1cc(OCCC[C@H]2CCN(CC(=O)Nc3ccc4c(C5CCC(=O)NC5=O)nn(C)c4c3)[C@H](C)C2)ccc1-c1ccc(N2CCc3cccc(C(=O)Nc4nc5ccccc5s4)c3C2)nc1C(=O)O (stereo partly drawn) [Compound 344c, 6-[8-(1,3-benzothiazol-2-ylcarbamoyl)-3,4-dihydro-1H-isoquinolin-2-yl]-3-[4-[3-[(2R,4S)-1-[2-[[3-(2,6-dioxo-3-piperidyl)-1-methyl-indazol-6-yl]amino]-2-oxo-ethyl]-2-methyl-4-piperidyl]propoxy]-2-methyl-phenyl]pyridine-2-carboxylic acid]	A (Ymin < 50%)	< 100		
Cc1c(-c2ccc(N3CCc4cccc(C(=O)Nc5nc6ccccc6s5)c4C3)nc2C(=O)NCC(=O)Nc2ccc3c(C4CCC(=O)NC4=O)nn(C)c3c2)cnn1Cc1ccccc1 (centres unmarked) [Compound 135, N-(1,3-benzothiazol-2-yl)-2-[5-(1-benzyl-5-methyl-pyrazol-4-yl)-6-[[2-[[3-(2,6-dioxo-3-piperidyl)-1-methyl-indazol-6-yl]amino]-2-oxo-ethyl]carbamoyl]-2-pyridyl]-3,4-dihydro-1H-isoquinoline-8-carboxamide]			B (50% ≤ Ymin < 70%)	< 100
Cc1c(OCCC[C@@H]2CCN(CC(=O)Nc3ccc4c(C5CCC(=O)NC5=O)nn(C)c4c3)C2)cccc1-c1ccc(N2CCc3cccc(C(=O)Nc4nc5ccccc5s4)c3C2)nc1C(=O)O (stereo partly drawn) [Compound 160a, 6-[8-(1,3-benzothiazol-2-ylcarbamoyl)-3,4-dihydro-1H-isoquinolin-2-yl]-3-[3-[3-[(3R)-1-[2-[[3-(2,6-dioxo-3-piperidyl)-1-methyl-indazol-6-yl]amino]-2-oxo-ethyl]pyrrolidin-3-yl]propoxy]-2-methyl-phenyl]pyridine-2-carboxylic acid]	A (Ymin < 50%)	< 100		
Cc1c(OCCCN2CCN(CC(=O)Nc3cccc4c(C5CCC(=O)NC5=O)nn(C)c34)[C@H](C(F)(F)F)C2)cccc1-c1ccc(N2CCc3cccc(C(=O)Nc4nc5ccccc5s4)c3C2)nc1C(=O)O (stereo partly drawn) [Compound 218b, 6-(8-(benzo[d]thiazol-2-ylcarbamoyl)-3,4-dihydroisoquinolin-2(1H)-yl)-3-(3-(3-((3S)-4-(2-((3-(2,6-dioxopiperidin-3-yl)-1-methyl-1H-indazol-7-yl)amino)-2-oxoethyl)-3-(trifluoromethyl)piperazin-1-yl)propoxy)-2-methylphenyl)picolinic acid]	C (Ymin ≥ 70%)	100 to 1000	C (Ymin ≥ 70%)	1000 to 10000
Cc1c(O[C@H]2CC[C@H](CCCN3CCN(c4ccc5c(C6CCC(=O)NC6=O)nn(C)c5c4)[C@@H](C(F)(F)F)C3)CC2)cccc1-c1ccc(N2CCc3cccc(C(=O)Nc4nc5ccccc5s4)c3C2)nc1C(=O)O (stereo partly drawn) [Compound 301a, 6-(8-(benzo[d]thiazol-2-ylcarbamoyl)-3,4-dihydroisoquinolin-2(1H)-yl)-3-(3-(((1s,4r)-4-(3-((3R)-4-(3-(2,6-dioxopiperidin-3-yl)-1-methyl-1H-indazol-6-yl)-3-(trifluoromethyl)piperazin-1-yl)propyl)cyclohexyl)oxy)-2-methylphenyl)picolinic acid]	A (Ymin < 50%)	< 100		
Cc1c(O[C@@H]2CCC3(CCN(CC(=O)Nc4ccc5c(C6CCC(=O)NC6=O)nn(C)c5c4)CC3)C2)cccc1-c1ccc(N2CCc3cccc(C(=O)Nc4nc5ccccc5s4)c3C2)nc1C(=O)O (single isomer, unassigned) [Compound 268b]	A (Ymin < 50%)	< 100		
Cc1c(O[C@H]2CC[C@H](CCCC3CCN(c4ccc5c(C6CCC(=O)NC6=O)nn(C)c5c4)CC3)CC2)cccc1-c1ccc(N2CCc3cccc(C(=O)Nc4nc5ccccc5s4)c3C2)nc1C(=O)O (some centres unmarked) [Compound 311b, 6-(8-(benzo[d]thiazol-2-ylcarbamoyl)-3,4-dihydroisoquinolin-2(1H)-yl)-3-(3-(((1s,4r)-4-(3-(1-(3-(2,6-dioxopiperidin-3-yl)-1-methyl-1H-indazol-6-yl)piperidin-4-yl)propyl)cyclohexyl)oxy)-2-methylphenyl)picolinic acid]	B (50% ≤ Ymin < 70%)	< 100		
Cc1cc2c(C3CCC(=O)NC3=O)nn(C)c2cc1N1CCN(CCC[C@H]2CC[C@H](Oc3cccc(-c4ccc(N5CCc6cccc(C(=O)Nc7nc8ccccc8s7)c6C5)nc4C(=O)O)c3C)CC2)CC1 (some centres unmarked) [Compound 335a, 6-(8-(benzo[d]thiazol-2-ylcarbamoyl)-3,4-dihydroisoquinolin-2(1H)-yl)-3-(3-(((1s,4r)-4-(3-(4-(3-(2,6-dioxopiperidin-3-yl)-1,5-dimethyl-1H-indazol-6-yl)piperazin-1-yl)propyl)cyclohexyl)oxy)-2-methylphenyl)picolinic acid]	A (Ymin < 50%)	< 100		
Cc1c(OCCC(F)(F)C2CCN(CC(=O)Nc3ccc4c(C5CCC(=O)NC5=O)nn(C)c4c3)CC2)cccc1-c1ccc(N2CCc3cccc(C(=O)Nc4nc5ccccc5s4)c3C2)nc1C(=O)O (centres unmarked) [Compound 229, 6-(8-(benzo[d]thiazol-2-ylcarbamoyl)-3,4-dihydroisoquinolin-2(1H)-yl)-3-(3-(3-(1-(2-((3-(2,6-dioxopiperidin-3-yl)-1-methyl-1H-indazol-6-yl)amino)-2-oxoethyl)piperidin-4-yl)-3,3-difluoropropoxy)-2-methylphenyl)picolinic acid]	B (50% ≤ Ymin < 70%)	< 100		
Cc1c(OCC[C@@H]2CCCN(CC(=O)Nc3ccc4c(C5CCC(=O)NC5=O)nn(C)c4c3)C2)cccc1-c1ccc(N2CCc3cccc(C(=O)Nc4nc5ccccc5s4)c3C2)nc1C(=O)O (stereo partly drawn) [Compound 180a, 6-(8-(benzo[d]thiazol-2-ylcarbamoyl)-3,4-dihydroisoquinolin-2(1H)-yl)-3-(3-(2-((3S)-1-(2-((3-(2,6-dioxopiperidin-3-yl)-1-methyl-1H-indazol-6-yl)amino)-2-oxoethyl)piperidin-3-yl)ethoxy)-2-methylphenyl)picolinic acid]	B (50% ≤ Ymin < 70%)	< 100		
Cc1c(OCC(F)(F)CN2C[C@@H](C)N(CC(=O)Nc3cccc4c(C5CCC(=O)NC5=O)nn(C)c34)[C@@H](C)C2)cccc1-c1ccc(N2CCc3cccc(C(=O)Nc4nc5ccccc5s4)c3C2)nc1C(=O)O (stereo partly drawn) [Compound 209a, 6-[8-(1,3-benzothiazol-2-ylcarbamoyl)-3,4-dihydro-1H-isoquinolin-2-yl]-3-[3-[3-[(3R,5S)-4-[2-[[3-(2,6-dioxo-3-piperidyl)-1-methyl-indazol-7-yl]amino]-2-oxo-ethyl]-3,5-dimethyl-piperazin-1-yl]-2,2-difluoro-propoxy]-2-methyl-phenyl]pyridine-2-carboxylic acid]	B (50% ≤ Ymin < 70%)	100 to 1000		
Cc1c(Oc2ccc(CCCC(=O)N3CCN(c4ccc5c(C6CCC(=O)NC6=O)nn(C)c5c4)CC3)cc2)cccc1-c1ccc(N2CCc3cccc(C(=O)Nc4nc5ccccc5s4)c3C2)nc1C(=O)O (centres unmarked) [Compound 178, 6-(8-(benzo[d]thiazol-2-ylcarbamoyl)-3,4-dihydroisoquinolin-2(1H)-yl)-3-(3-(4-(4-(4-(3-(2,6-dioxopiperidin-3-yl)-1-methyl-1H-indazol-6-yl)piperazin-1-yl)-4-oxobutyl)phenoxy)-2-methylphenyl)picolinic acid]	B (50% ≤ Ymin < 70%)	< 100		
